Data reported in PubChem BioAssay AID256 (DTP/NCI, 2004).
Values joined by “and” are separate entries in the source; they are usually repeats but may differ in a detail not shown here. Equal values may be shown once. Inconclusive results and toxic doses are left out. Rule for the calls: active = survival T/C of 150% or more; inactive = T/C below 125% in these data.

Tested on: CD2F1 mice, L1210 leukemia ip, survival T/C
Test: NCI In Vivo Anticancer Drug Screen. Data for tumor model L1210 Leukemia (intraperitoneal) in CD2F1 (CDF1) mice
Settings: higher = longer survival
In short: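 Tumor-bearing mice (transplanted tumor) were split into treated and vehicle control groups, and the measured endpoint of each treated group was divided by that of its vehicle controls.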

[1] = endpoint: mean survival time, dose: 25.0 mg/kg/injection, schedule: Q01DX009 (ip), vehicle: saline
[2] = endpoint: mean survival time, dose: 50.0 mg/kg/injection, schedule: Q01DX009 (ip), vehicle: saline
[3] = endpoint: mean survival time, dose: 100.0 mg/kg/injection, schedule: Q01DX009 (ip), vehicle: saline
[4] = endpoint: mean survival time, dose: 12.5 mg/kg/injection, schedule: Q04DX002 (ip), vehicle: saline with Tween-80
[5] = endpoint: mean survival time, dose: 50.0 mg/kg/injection, schedule: Q04DX002 (ip), vehicle: saline with Tween-80
[6] = endpoint: mean survival time, dose: 100.0 mg/kg/injection, schedule: Q04DX002 (ip), vehicle: saline with Tween-80
[7] = endpoint: mean survival time, dose: 200.0 mg/kg/injection, schedule: Q04DX002 (ip), vehicle: saline with Tween-80
[8] = endpoint: mean survival time, dose: 400.0 mg/kg/injection, schedule: Q04DX002 (ip), vehicle: saline with Tween-80
[9] = endpoint: mean survival time, dose: 100.0 mg/kg/injection, schedule: Q01DX001 (ip), vehicle: saline
[10] = endpoint: mean survival time, dose: 200.0 mg/kg/injection, schedule: Q01DX001 (ip), vehicle: saline
[11] = endpoint: mean survival time, dose: 100.0 mg/kg/injection, schedule: Q04DX002 (ip), vehicle: saline
[12] = endpoint: mean survival time, dose: 200.0 mg/kg/injection, schedule: Q04DX002 (ip), vehicle: saline

Measured: T/C

O=P(O)(O)OCC1OC(n2cnc3c(NCc4ccccc4)ncnc32)C(O)C1O (stereo not given)
inactive: endpoint: mean survival time, dose: 12.5 mg/kg/injection, schedule: Q01DX005 (ip), vehicle: other 104 % of control | endpoint: mean survival time, dose: 25.0 mg/kg/injection, schedule: Q01DX005 (ip), vehicle: other 100 % of control | endpoint: mean survival time, dose: 50.0 mg/kg/injection, schedule: Q01DX005 (ip), vehicle: other 104 % of control | endpoint: mean survival time, dose: 100.0 mg/kg/injection, schedule: Q01DX005 (ip), vehicle: other 117 % of control

COc1ccc(Cc2ccc(O)cc2)cc1
inactive: endpoint: mean survival time, dose: 100.0 mg/kg/injection, schedule: Q01DX009 (ip), vehicle: other 101 % of control | endpoint: mean survival time, dose: 200.0 mg/kg/injection, schedule: Q01DX009 (ip), vehicle: other 101 % of control | endpoint: mean survival time, dose: 400.0 mg/kg/injection, schedule: Q01DX009 (ip), vehicle: other 104 % of control

CN1CCC(=C(C#N)C#N)CC1
inactive: [1] 103 % of control | [2] 94 % of control | [3] 96 % of control

COc1ccc(C(O)(c2ccccc2)C(O)c2ccccc2)cc1 (stereo not given)
inactive: [4] 93 % of control | endpoint: mean survival time, dose: 25.0 mg/kg/injection, schedule: Q04DX002 (ip), vehicle: saline with Tween-80 86 % of control | [5] 86 % of control | endpoint: mean survival time, dose: 100.0 mg/kg/injection, schedule: Q04DX003 (ip), vehicle: saline with Tween-80 93 % of control | endpoint: mean survival time, dose: 200.0 mg/kg/injection, schedule: Q04DX003 (ip), vehicle: saline with Tween-80 87 % of control | endpoint: mean survival time, dose: 400.0 mg/kg/injection, schedule: Q04DX003 (ip), vehicle: saline with Tween-80 94 % of control and 89 % of control

CC(c1ccccc1C(=O)O)c1cc(F)cc2ccccc12 (stereo not given)
inactive: endpoint: median survival time, dose: 25.0 mg/kg/injection, schedule: Q04DX003 (ip), vehicle: saline with Tween-80 111 % of control | endpoint: median survival time, dose: 50.0 mg/kg/injection, schedule: Q04DX003 (ip), vehicle: saline with Tween-80 111 % of control | endpoint: median survival time, dose: 100.0 mg/kg/injection, schedule: Q04DX003 (ip), vehicle: saline with Tween-80 88 % of control | endpoint: median survival time, dose: 200.0 mg/kg/injection, schedule: Q04DX003 (ip), vehicle: saline with Tween-80 88 % of control

CN(C)[C@@H]1C(=O)C(C(N)=O)=C(O)[C@@]2(O)C(=O)C3=C(O)c4c(O)ccc(Cl)c4[C@@](C)(O)[C@H]3C[C@@H]12
inactive: endpoint: mean survival time, dose: 12.5 mg/kg/injection, schedule: Q01DX009 (ip), vehicle: saline with Tween-80 98 % of control | endpoint: mean survival time, dose: 12.5 mg/kg/injection, schedule: Q01DX009 (ip), vehicle: saline 107 % of control | endpoint: mean survival time, dose: 25.0 mg/kg/injection, schedule: Q01DX009 (ip), vehicle: saline with Tween-80 97 % of control | [1] 101 % of control | endpoint: mean survival time, dose: 50.0 mg/kg/injection, schedule: Q01DX009 (ip), vehicle: saline with Tween-80 93 % of control and 108 % of control | [2] 103 % of control | endpoint: mean survival time, dose: 100.0 mg/kg/injection, schedule: Q01DX009 (ip), vehicle: saline with Tween-80 104 % of control and 111 % of control | [3] 113 % of control | endpoint: mean survival time, dose: 200.0 mg/kg/injection, schedule: Q01DX009 (ip), vehicle: saline with Tween-80 102 % of control

CN(C)CCCN=Cc1cc([N+](=O)[O-])ccc1O.CN(C)CCCN=Cc1cc([N+](=O)[O-])ccc1O.[Ni+2]
inactive: endpoint: mean survival time, dose: 6.25 mg/kg/injection, schedule: Q04DX002 (ip), vehicle: saline with Tween-80 91 % of control | [4] 91 % of control | [5] 93 % of control

O=c1[nH]cc(S)c(=O)[nH]1
inactive: [6] 106 % of control | [7] 97 % of control | [8] 106 % of control

O=C1C=CC(=Nc2ccccc2)O1
inactive: endpoint: mean survival time, dose: 2.5 mg/kg/injection, schedule: Q01DX009 (ip), vehicle: saline with Tween-80 96 % of control | endpoint: mean survival time, dose: 2.5 mg/kg/injection, schedule: Q04DX003 (ip), vehicle: saline with Tween-80 101 % of control | endpoint: mean survival time, dose: 5.0 mg/kg/injection, schedule: Q01DX009 (ip), vehicle: saline with Tween-80 102 % of control | endpoint: mean survival time, dose: 5.0 mg/kg/injection, schedule: Q04DX003 (ip), vehicle: saline with Tween-80 101 % of control | endpoint: mean survival time, dose: 10.0 mg/kg/injection, schedule: Q01DX009 (ip), vehicle: saline with Tween-80 93 % of control | endpoint: mean survival time, dose: 10.0 mg/kg/injection, schedule: Q04DX003 (ip), vehicle: saline with Tween-80 98 % of control

O=C(O)c1cccs1
inactive: endpoint: mean survival time, dose: 100.0 mg/kg/injection, schedule: Q04DX003 (ip), vehicle: other 100 % of control | endpoint: mean survival time, dose: 200.0 mg/kg/injection, schedule: Q04DX003 (ip), vehicle: other 102 % of control

CCCCCOS(=O)(=O)O
inactive: [9] 108 % of control | [10] 120 % of control | endpoint: mean survival time, dose: 400.0 mg/kg/injection, schedule: Q01DX001 (ip), vehicle: saline 102 % of control

CC1CC(C)(C)OC(C(C)(C)C)O1 (stereo not given)
inactive: endpoint: mean survival time, dose: 50.0 mg/kg/injection, schedule: Q04DX002 (ip), vehicle: saline 92 % of control | [11] 100 % of control | [12] 103 % of control

CCOC(=O)CCC(NC(=O)N(CCCl)CCCl)C(=O)OCC (stereo not given)
inactive: endpoint: mean survival time, dose: 25.0 mg/kg/injection, schedule: Q01DX001 (ip), vehicle: carboxymethylcellulose (CMC) 97 % of control | endpoint: mean survival time, dose: 50.0 mg/kg/injection, schedule: Q01DX001 (ip), vehicle: carboxymethylcellulose (CMC) 106 % of control | [9] 103 % of control | [10] 114 % of control | endpoint: mean survival time, dose: 900.0 mg/kg/injection, schedule: Q01DX001 (ip), vehicle: carboxymethylcellulose (CMC) 102 % of control

CCOc1ccccc1C(=O)OC(CN(CC)CC)c1ccccc1 (stereo not given)
inactive: [11] 95 % of control | [12] 95 % of control

CCOc1nc(-c2ccccc2)nc(N)c1Cl
inactive: [6] 98 % of control | [7] 98 % of control | [8] 98 % of control

O=[N+]([O-])c1ccc(Oc2c(Cl)cc(Cl)c(Cl)c2Cl)c([N+](=O)[O-])c1
inactive: endpoint: mean survival time, dose: 75.0 mg/kg/injection, schedule: Q01DX001 (ip), vehicle: other 100 % of control | endpoint: mean survival time, dose: 150.0 mg/kg/injection, schedule: Q01DX001 (ip), vehicle: other 102 % of control | endpoint: mean survival time, dose: 300.0 mg/kg/injection, schedule: Q01DX001 (ip), vehicle: other 94 % of control

c1cc[c]([Ge]([c]2ccccc2)([c]2ccccc2)[c]2ccccc2)cc1
inactive: endpoint: mean survival time, dose: 100.0 mg/kg/injection, schedule: Q04DX003 (ip), vehicle: saline 86 % of control | endpoint: mean survival time, dose: 200.0 mg/kg/injection, schedule: Q04DX003 (ip), vehicle: saline 86 % of control | endpoint: mean survival time, dose: 400.0 mg/kg/injection, schedule: Q04DX003 (ip), vehicle: saline 91 % of control

COC(=O)c1nc(SC)n(C2OC(COC(=O)c3ccccc3)C(OC(=O)c3ccccc3)C2OC(=O)c2ccccc2)c1CC#N (stereo not given)
inactive: endpoint: median survival time, dose: 9.13 mg/kg/injection, schedule: Q01DX005 (ip), vehicle: saline with Tween-80 100 % of control | endpoint: median survival time, dose: 18.25 mg/kg/injection, schedule: Q01DX005 (ip), vehicle: saline with Tween-80 98 % of control | endpoint: median survival time, dose: 36.5 mg/kg/injection, schedule: Q01DX005 (ip), vehicle: saline with Tween-80 91 % of control | endpoint: median survival time, dose: 73.0 mg/kg/injection, schedule: Q01DX005 (ip), vehicle: saline with Tween-80 98 % of control | endpoint: median survival time, dose: 146.0 mg/kg/injection, schedule: Q01DX005 (ip), vehicle: saline with Tween-80 96 % of control
